Experimental data as given in ChEMBL document CHEMBL4270599, “Synthesis of a 3'-C-ethynyl-β-d-ribofuranose purine nucleoside library: Discovery of C7-deazapurine analogs as potent antiproliferative nucleosides” (Eur J Med Chem, 2018).

Experiments:
Format in all cases: functional
NCI-H460 = experiment: Growth inhibition of human NCI-H460 cells assessed as cell growth at 10^-7 M incubated for 48 hrs by sulforhodamine B assay relative to control; settings: NCI-H460, 48 h, read-out: Activity
SNB-75 [1] = experiment: Growth inhibition of human SNB75 cells assessed as cell growth at 10^-8 M incubated for 48 hrs by sulforhodamine B assay relative to control; settings: SNB-75, 48 h, read-out: Activity
SF-295 = experiment: Growth inhibition of human SF295 cells assessed as cell growth at 10^-6 M incubated for 48 hrs by sulforhodamine B assay relative to control; settings: SF-295, 48 h, read-out: Activity
ACHN [2] = experiment: Growth inhibition of human ACHN cells assessed as cell growth at 10^-8 M incubated for 48 hrs by sulforhodamine B assay relative to control; settings: read-out: Activity
CCRF-CEM = experiment: Growth inhibition of human CCRF-CEM cells assessed as cell growth at 10^-7 M incubated for 48 hrs by sulforhodamine B assay relative to control; settings: read-out: Activity
UACC-257 = experiment: Cytotoxicity against human UACC257 cells after 48 hrs by SRB assay; settings: UACC-257, 48 h; for CC50: read-out: LC50 (the source's name)
SF-268 = experiment: Cytotoxicity against human SF268 cells after 48 hrs by SRB assay; settings: SF-268, 48 h
DU-145 [3] = experiment: Growth inhibition of human DU145 cells assessed as cell growth at 10^-8 M incubated for 48 hrs by sulforhodamine B assay relative to control; settings: DU-145, 48 h, read-out: Activity
ACHN [4] = experiment: Growth inhibition of human ACHN cells assessed as cell growth at 10^-4 M incubated for 48 hrs by sulforhodamine B assay relative to control; settings: read-out: Activity
NCI-H23 = experiment: Growth inhibition of human NCI-H23 cells assessed as cell growth at 10^-8 M incubated for 48 hrs by sulforhodamine B assay relative to control; settings: NCI-H23, 48 h, read-out: Activity
SK-MEL-2 = experiment: Growth inhibition of human SK-MEL-2 cells assessed as cell growth at 10^-8 M incubated for 48 hrs by sulforhodamine B assay relative to control; settings: SK-MEL-2, 48 h, read-out: Activity
PC-3 = experiment: Growth inhibition of human PC3 cells assessed as cell growth at 10^-8 M incubated for 48 hrs by sulforhodamine B assay relative to control; settings: PC-3, 48 h, read-out: Activity
786-0 = experiment: Cytotoxicity against human 786-0 cells after 48 hrs by SRB assay; settings: 786-0, 48 h
LOX IMVI = experiment: Growth inhibition of human LOXIMVI cells assessed as cell growth at 10^-8 M incubated for 48 hrs by sulforhodamine B assay relative to control; settings: read-out: Activity
A498 = experiment: Cytotoxicity against human A498 cells after 48 hrs by SRB assay; settings: A498, 48 h
DU-145 [5] = experiment: Growth inhibition of human DU145 cells assessed as cell growth at 10^-7 M incubated for 48 hrs by sulforhodamine B assay relative to control; settings: DU-145, 48 h, read-out: Activity
SK-MEL-28 = experiment: Growth inhibition of human SK-MEL-28 cells assessed as cell growth at 10^-8 M incubated for 48 hrs by sulforhodamine B assay relative to control; settings: SK-MEL-28, 48 h, read-out: Activity
MOLT-4 = experiment: Cytotoxicity against human MOLT4 cells after 48 hrs by SRB assay; settings: MOLT-4, 48 h
EKVX = experiment: Growth inhibition of human EKVX cells assessed as cell growth at 10^-7 M incubated for 48 hrs by sulforhodamine B assay relative to control; settings: read-out: Activity
HL-60(TB) = experiment: Growth inhibition of human HL-60(TB) cells assessed as cell growth at 10^-7 M incubated for 48 hrs by sulforhodamine B assay relative to control; settings: HL-60, 48 h, read-out: Activity
MDA-MB-231 = experiment: Growth inhibition of human MDA-MB-231 cells assessed as cell growth at 10^-7 M incubated for 48 hrs by sulforhodamine B assay relative to control; settings: MDA-MB-231, 48 h, read-out: Activity
SW-620 = experiment: Growth inhibition of human SW620 cells assessed as cell growth at 10^-8 M incubated for 48 hrs by sulforhodamine B assay relative to control; settings: SW-620, 48 h, read-out: Activity
K562 = experiment: Growth inhibition of human K562 cells assessed as cell growth at 10^-6 M incubated for 48 hrs by sulforhodamine B assay relative to control; settings: K562, 48 h, read-out: Activity
HCT-15 [6] = experiment: Growth inhibition of human HCT15 cells assessed as cell growth at 10^-5 M incubated for 48 hrs by sulforhodamine B assay relative to control; settings: HCT-15, 48 h, read-out: Activity
COLO 205 = experiment: Growth inhibition of human COLO205 cells assessed as cell growth at 10^-7 M incubated for 48 hrs by sulforhodamine B assay relative to control; settings: COLO 205, 48 h, read-out: Activity
TK-10 = experiment: Cytotoxicity against human TK10 cells after 48 hrs by SRB assay; settings: TK-10, 48 h
HCT-15 [7] = experiment: Growth inhibition of human HCT15 cells assessed as cell growth at 10^-6 M incubated for 48 hrs by sulforhodamine B assay relative to control; settings: HCT-15, 48 h, read-out: Activity
Hs-578T = experiment: Growth inhibition of human Hs 578T cells assessed as cell growth at 10^-6 M incubated for 48 hrs by sulforhodamine B assay relative to control; settings: read-out: Activity
SNB-75 [8] = experiment: Growth inhibition of human SNB75 cells assessed as cell growth at 10^-6 M incubated for 48 hrs by sulforhodamine B assay relative to control; settings: SNB-75, 48 h, read-out: Activity
OVCAR-3 = experiment: Growth inhibition of human OVCAR3 cells assessed as cell growth at 10^-4 M incubated for 48 hrs by sulforhodamine B assay relative to control; settings: OVCAR-3, 48 h, read-out: Activity
NCI/ADR-RES = experiment: Growth inhibition of human NCI/ADR-RES cells assessed as cell growth at 10^-4 M incubated for 48 hrs by sulforhodamine B assay relative to control; settings: read-out: Activity
M14 = experiment: Growth inhibition of human M14 cells assessed as cell growth at 10^-6 M incubated for 48 hrs by sulforhodamine B assay relative to control; settings: M14, 48 h, read-out: Activity
UACC-62 = experiment: Growth inhibition of human UACC62 cells assessed as cell growth at 10^-6 M incubated for 48 hrs by sulforhodamine B assay relative to control; settings: UACC-62, 48 h, read-out: Activity
[9] = read-out: pLC50 (the source's name) (converted)
[10] = read-out: LC50 (the source's name)

Structure (SMILES): C#C[C@@]1(O)[C@@H](CO)O[C@@H](n2cc(Cl)c3c(N)ncnc32)[C@@H]1O
- growth at 0.1 µM (NCI-H460): 13 to 27%
- growth at 0.01 µM (SNB-75 [1]): 84%
- growth at 1 µM (SF-295): 13 to 20%
- growth at 0.01 µM (ACHN [2]): 95%
- growth at 0.1 µM (CCRF-CEM): 76 to 80%
- GI50 (UACC-257; read-out: GI50): 0.27 to 0.446 µM
- CC50 (UACC-257): > 100 µM
- TGI (UACC-257; read-out: TGI): 63.8 to 100 µM
- GI50 (SF-268; read-out: GI50): 0.328 to 0.338 µM
- TGI (SF-268; read-out: TGI): 14.4 to 31.1 µM
- CC50 (SF-268; [9]): > 100 µM
- growth at 0.01 µM (DU-145 [3]): 96 to 100%
- growth at 100 µM (ACHN [4]): 7%
- growth at 0.01 µM (NCI-H23): 88 to 89%
- growth at 0.01 µM (SK-MEL-2): 86 to 95%
- growth at 0.01 µM (PC-3): 91 to 94%
- GI50 (786-0; read-out: GI50): 0.308 to 0.336 µM
- LC50 (lethal concentration, 50% cell kill) (786-0; read-out: LC50): 5.21 to 5.7 µM
- TGI (786-0; read-out: TGI): 1.31 to 1.34 µM
- growth at 0.01 µM (LOX IMVI): 70 to 84%
- GI50 (A498; read-out: GI50): 0.225 to 0.334 µM
- CC50 (A498; [10]): 0.842 to 5.62 µM
- TGI (A498; read-out: TGI): 0.435 to 1 µM
- growth at 0.1 µM (DU-145 [5]): 51 to 61%
- growth at 0.01 µM (SK-MEL-28): 94%
- GI50 (MOLT-4; read-out: GI50): 0.161 to 0.181 µM
- CC50 (MOLT-4; [10]): > 100 µM
- TGI (MOLT-4; read-out: TGI): 6.97 to 100 µM
- growth at 0.1 µM (EKVX): 78 to 79%
- growth at 0.1 µM (HL-60(TB)): 19 to 47%
- growth at 0.1 µM (MDA-MB-231): 60 to 71%
- growth at 0.01 µM (SW-620): 88 to 91%
- growth at 1 µM (K562): 7%
- growth at 10 µM (HCT-15 [6]): 1%
- growth at 0.1 µM (COLO 205): 43 to 69%
- GI50 (TK-10; read-out: GI50): 0.302 to 0.334 µM
- TGI (TK-10; read-out: TGI): 0.891 to 1.72 µM
- CC50 (TK-10; [9]): > 100 µM
- growth at 1 µM (HCT-15 [7]): 1%
- growth at 1 µM (Hs-578T): 25 to 77%

Structure (SMILES): C#C[C@@]1(O)[C@@H](CO)O[C@@H](n2cc(F)c3c(N)ncnc32)[C@@H]1O
- growth at 0.1 µM (NCI-H460): 76%
- growth at 0.01 µM (SNB-75 [1]): 92%
- growth at 1 µM (SF-295): 40%
- growth at 0.01 µM (ACHN [2]): 102%
- growth at 0.1 µM (CCRF-CEM): 81%
- CC50 (UACC-257): > 100 µM
- TGI (UACC-257; read-out: TGI): 4.64 µM
- GI50 (UACC-257; read-out: pGI50 (converted)): 0.49 µM
- TGI (UACC-257; read-out: pTGI (converted)): 4.68 µM
- CC50 (SF-268; [10]): > 100 µM
- TGI (SF-268; read-out: TGI): 78.3 µM
- GI50 (SF-268; read-out: pGI50 (converted)): 0.759 µM
- TGI (SF-268; read-out: pTGI (converted)): 77.6 µM
- growth at 0.01 µM (DU-145 [3]): 103%
- growth at 100 µM (ACHN [4]): 2%
- growth at 1 µM (SNB-75 [8]): 52%
- growth at 0.01 µM (NCI-H23): 97%
- growth at 100 µM (OVCAR-3): 3%
- growth at 0.01 µM (SK-MEL-2): 103%
- growth at 100 µM (NCI/ADR-RES): -6%
- growth at 0.01 µM (PC-3): 92%
- TGI (786-0; read-out: TGI): 2.84 µM
- GI50 (786-0; read-out: pGI50 (converted)): 0.708 µM
- TGI (786-0; read-out: pTGI (converted)): 2.82 µM
- growth at 0.01 µM (LOX IMVI): 96%
- TGI (A498; read-out: TGI): 2.27 µM
- GI50 (A498; read-out: pGI50 (converted)): 0.724 µM
- CC50 (A498; [9]): 5.89 µM
- TGI (A498; read-out: pTGI (converted)): 2.29 µM
- growth at 0.1 µM (DU-145 [5]): 92%
- growth at 0.01 µM (SK-MEL-28): 102%
- TGI (MOLT-4; read-out: TGI): > 100 µM
- GI50 (MOLT-4; read-out: pGI50 (converted)): 0.302 µM
- CC50 (MOLT-4; [9]): > 100 µM
- TGI (MOLT-4; read-out: pTGI (converted)): > 100 µM
- growth at 1 µM (M14): 29%
- growth at 0.1 µM (EKVX): 86%
- growth at 0.1 µM (HL-60(TB)): 103%
- growth at 0.1 µM (MDA-MB-231): 88%
- growth at 0.01 µM (SW-620): 97%
- growth at 1 µM (K562): 16%
- growth at 10 µM (HCT-15 [6]): -18%
- growth at 0.1 µM (COLO 205): 81%
- CC50 (TK-10; [10]): > 100 µM
- TGI (TK-10; read-out: TGI): 6.56 µM
- GI50 (TK-10; read-out: pGI50 (converted)): 0.741 µM
- TGI (TK-10; read-out: pTGI (converted)): 6.61 µM
- growth at 1 µM (UACC-62): 12%
- growth at 1 µM (HCT-15 [7]): 18%
- growth at 1 µM (Hs-578T): 97%
